# Results published in patent publication US20030186943A1, “Substituted gamma-phenyl-delta-lactams and uses related thereto” (Inflazyme Pharmaceuticals Ltd., priority 1998, published 2003).
# Tests used:
# [1] = tested on: K562 chronic myelogenous leukemia cells; assay: Anti-proliferative activity in K562 cells (3H-thymidine uptake); format: cell-based, human; conditions: for IC50: Homo sapiens, K562, 48 hours, 3H-thymidine, X marks this range, read-out: IC50 range (μM) >50
# Procedure: 90 μL K562 cells (human chronic myelogenous leukemia cells) were seeded into sterile 96-well assay plates at a density of 1×10^5 cells/mL in RPMI 1640 supplemented with 10% FBS/2 mM L-glutamine. Samples to be tested were prepared in a sterile 96-well assay plate at 10×the final concentration desired. All sample dilutions contained equal amounts of DMSO to compensate for the % DMSO in the highest sample concentration used. Nine concentrations of test compound were examined for effects on growth up to a maximal concentration of 100 μM. 10 μL of the samples and controls (DMSO/normal growth control) were added to the aliquoted cells. The cells were incubated at 37° C./5% CO2 for 48 hours. Following 48 hour incubation, 20 μL of 3H-thymidine was added to each well for a final concentration of 1 μCi/mL. The cells were then incubated at 37° C./5% CO2 for 4 to 6 hours. Following 4-6 hour thymidine pulse, plates were wrapped in plastic and frozen in a −20° C. frost-free freezer overnight. Cells were harvested and ^3H-thymidine counts determined. In order to distinguish between cytotoxicity and cytostatic activity, growth curves were prepared where the average CPM value of the seeding density of cells was plotted on the same curve as the average CPM value for the maximum proliferation attained after 48 hours (DMSO growth control cells). The cells were diluted 1:2 for a concentration range of 7.8×10^3 cells/mL to 2×10^6 cells/mL. 90 μL of each cell dilution was seeded in sterile 96-well assay plated and allowed to equilibrate for approximately 4 hours at 37° C./5% CO2 prior to ^3H-thymidine pulse. The data in Table 15 was obtained as described above, and more specifically, K562 cells were seeded into 96-well plates at 1×10^5 cells/mL in RPMI 1640 supplemented with 10% FBS/2 mM L-glutamine. Various concentrations of test compound or vehicle (DMSO) was added and the cells were incubated at 37° C./5 CO2 for 48 hours. The cells were then pulsed at 37° C./5% CO2 for 4 to 6 hours with 1 μCi/mL ^3H-thymidine. Radioactivity incorporated into DNA was determined after harvesting onto glass fiber filters and scintillation counting.
# [2] = tested on: tail skin allograft rejection (C57BL/6 donor, BALB/c recipient mice); assay: Murine tail skin allograft transplantation model; format: in vivo, mouse; conditions: 10 mg/kg i.p. twice daily; for Average graft survival: from one day prior to and for 15 days after transplantation; for # grafts surviving beyond 16 days p.t.: five mice per group
# Procedure: Tail skin from donor H-2 b C57BL/6 mice was transplanted onto recipient female H-2^d BALB/c mice (Lagodzinski, Z. et al., Immunology 71:148-150 (1990)). Five mice were included per group. […] Test compounds and CsA were administered twice daily intraperitoneally at a dose of 10 mg/kg beginning at one day prior to transplantation and for 15 days after transplantation, including the day of transplantation. Mice were monitored and scored daily over 15 days post transplantation for graft rejection.
# Skin allograft rejection is primarily mediated by T lymphocytes with little evidence for a major role of antibodies under most circumstances. Skin allograft rejection requires the activation of helper and cytotoxic effector T cell populations. Graft rejection was assessed by monitoring allograft necrosis. Because tail skin is visibly distinct from the surrounding trunk skin of the mouse, the course of rejection can be easily monitored. Fully intact grafts were scored as 100%. Complete graft rejection was defined as >90% graft necrosis. Acute graft rejection generally proceeds via a series of visually obvious events beginning with swelling and erythema of the graft. These events are followed by graft desiccation and scab formation over most or all of the graft, signaling the loss of the viable graft tissue. Scab formation is subsequently followed by shrinkage and scar formation.
# naive CD4+ T-cells = assay: Naive CD4+ T-cell proliferation (AND-TCR transgenic); format: cell-based, mouse
# Procedure: AND-TCR transgenic mice (Kaye J. et al., Nature 341:746-749, 1989) were used to provide a source of naive-antigen specific CD4+T cells. The AND-T cell antigen receptor recognizes a peptide derived from pigeon cytochrome C (pcc) in the context of the I-E^k class II MHC molecule.
# To examine the role of a test compound in naive CD4 T cell activation and proliferation, 1×10^5 AND-lymph node T cells were cultured with 1×10^6 irradiated B10.BR spleen cells in the presence of varying concentrations of pcc peptide (0-10 μM) in 96 well plates. Proliferation was assessed by ^3H thymidine incorporation. All assay conditions were conducted in triplicate. Cell surface activation phenotype of T cells was assessed by flow cytometric analysis.
compound,measurement,setting,value
COc1ccc([C@@H]2CCC(=O)OC2)cc1OC1CCCC1 [Compound 41],IC50,[1],> 50 µM
same,Average graft survival,[2],11.6 ± 4.6 days
same,Allograft survival rate (% at 9 days post-transplant),[2],60%
same,# grafts surviving beyond 16 days p.t.,[2],1
COc1cc(CC2C[C@@H](c3ccc(OC)c(OC4CCCC4)c3)COC2=O)ccc1O (some centres unmarked) [Compound 43],inhibition at 5 µM,"naive CD4+ T-cells; Mus musculus, T-cell, @5 μM",> 70%
COc1ccc([C@H]2CNC(=O)C(Cc3ccc(OCc4ccccc4)c(OC)c3)C2)cc1OC (some centres unmarked) [Compound 54],Average graft survival,[2],11.5 ± 3.3 days
same,Allograft survival rate (% at 9 days post-transplant),[2],75%
same,# grafts surviving beyond 16 days p.t.,[2],0
"COc1ccc(C2CNC(=O)C2)cc1OC1CCCC1 (centres unmarked) [Rolipram, reference compound]",effect on proliferative ability / cell cycle of K-562 cells,[1],failed to have any effect
same,IC50,[1],> 50 µM
same,Average graft survival,[2],11.5 ± 3.7 days
same,Allograft survival rate (% at 9 days post-transplant),[2],50%
same,# grafts surviving beyond 16 days p.t.,[2],1
same,inhibition of T-cell populations,"naive CD4+ T-cells; all T-cell populations, control phosphodiesterase IV inhibitor",uniformly inhibitory
